Here are results for eight compounds from PubChem BioAssay (NCI).

Some test systems named below: MOLT-4 leukemia; NCI-H460 lung; LOX IMVI melanoma; IGROV1 ovarian; MDA-MB-435; NCI-H522 lung; 786-0 renal; HT29 colon; OVCAR-8 ovarian; M14 melanoma.
Assay in all cases: NCI tumour cell line growth inhibition, 48 h

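These data come from cells grown in 96-well plates and exposed to compound for 48 hours at five concentrations. At the GI50, growth is halved. TGI is the concentration that stops growth completely.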

`C=C(c1ccc(C(=O)N(C)c2ccccc2N)cc1)C(C)N1C(=O)[C@H]2CCCN2C(=O)c2ccccc21` (some centres undefined): the GI50 in the assay with MOLT-4 leukemia was 24.8 µM; with NCI-H460 lung, 32.1 µM; in the assay on LOX IMVI melanoma, 34.2 µM; with IGROV1 ovarian, 69.5 µM; with MDA-MB-435, 38.3 µM; with NCI-H522 lung it was 17.7 µM. The GI50 is 57.6 µM in the assay with 786-0 renal, 16.1 µM in the assay on HT29 colon, 43.7 µM in the assay on OVCAR-8 ovarian and 50.1 µM in the assay on M14 melanoma. Further, the TGI in the assay with MOLT-4 leukemia is 97.9 µM; in the assay on NCI-H460 lung, more than 100 µM; with LOX IMVI melanoma, more than 100 µM; in the assay on IGROV1 ovarian, more than 100 µM; with MDA-MB-435 it was more than 100 µM; in the assay on NCI-H522 lung, more than 100 µM. The TGI in the assay on 786-0 renal was more than 100 µM; in the assay on HT29 colon, 80.2 µM; in the assay with OVCAR-8 ovarian it was more than 100 µM; in the assay on M14 melanoma it was more than 100 µM.

Take `O=C(O)c1ccc(N/C=C2\C(=O)c3ccccc3OC2O)cc1O` (centres undefined): the GI50 with MOLT-4 leukemia was 13.2 mg/L; in the assay on NCI-H460 lung, 32.3 mg/L; in the assay on LOX IMVI melanoma it was 22.5 mg/L; in the assay with IGROV1 ovarian, 12.8 mg/L; in the assay on MDA-MB-435, 20.2 mg/L; in the assay on NCI-H522 lung it was 28 mg/L. The GI50 was 28.5 mg/L in the assay on 786-0 renal, 29.7 mg/L with HT29 colon, 22 mg/L in the assay with OVCAR-8 ovarian and 21.5 mg/L in the assay on M14 melanoma. Moreover, the TGI is 77.9 mg/L in the assay with MOLT-4 leukemia; 78.3 mg/L in the assay with NCI-H460 lung; 73.3 mg/L in the assay on LOX IMVI melanoma; 47.3 mg/L in the assay on IGROV1 ovarian; 68.4 mg/L in the assay on MDA-MB-435; 62.9 mg/L with NCI-H522 lung. The TGI in the assay with 786-0 renal came out at 52.3 mg/L; in the assay with HT29 colon, 83.2 mg/L; in the assay on OVCAR-8 ovarian it was 97.2 mg/L; in the assay with M14 melanoma, 47.5 mg/L.

For the compound `O=C(Cc1cccc(OC(F)(F)F)c1)Nc1ccc(CCCCc2nnc(NC(=O)Cc3ccccn3)s2)nn1`, the GI50 was 5.49 µM in the assay on MOLT-4 leukemia; 13.9 µM in the assay with NCI-H460 lung; 25.9 µM in the assay on LOX IMVI melanoma; 17.3 µM in the assay on IGROV1 ovarian; 30.4 µM with MDA-MB-435; 12.2 µM in the assay on NCI-H522 lung. For the same compound, the GI50 is 11.4 µM in the assay with 786-0 renal, 24.3 µM in the assay with HT29 colon, 15.8 µM in the assay with OVCAR-8 ovarian and 36.3 µM in the assay with M14 melanoma. Also, the TGI in the assay with MOLT-4 leukemia is more than 100 µM; with NCI-H460 lung, 48.3 µM; in the assay with LOX IMVI melanoma, more than 100 µM; in the assay on IGROV1 ovarian it was more than 100 µM; in the assay on MDA-MB-435, more than 100 µM; in the assay on NCI-H522 lung it was 40.1 µM. Further, the TGI was 27.5 µM with 786-0 renal, 96.7 µM in the assay with HT29 colon, 54.8 µM in the assay on OVCAR-8 ovarian and more than 100 µM with M14 melanoma.

For the compound `COc1ccc2c(c1)C(c1ccccc1Cl)=Nc1c(n[nH]c1C)N2`, the GI50 was more than 25 µM with MOLT-4 leukemia; 18.5 µM in the assay with NCI-H460 lung; 14.7 µM with LOX IMVI melanoma; more than 25 µM in the assay on IGROV1 ovarian; more than 25 µM with MDA-MB-435; more than 20 µM with NCI-H522 lung. Moreover, the GI50 was more than 18.6 µM in the assay on 786-0 renal, more than 18.7 µM with HT29 colon, more than 25 µM in the assay with OVCAR-8 ovarian and more than 25 µM in the assay with M14 melanoma. Moreover, the TGI with MOLT-4 leukemia, in the assay on NCI-H460 lung, in the assay with LOX IMVI melanoma, with IGROV1 ovarian, with MDA-MB-435 and with NCI-H522 lung was more than 25 µM in each case. Besides, the TGI in the assay on 786-0 renal, in the assay on HT29 colon, in the assay with OVCAR-8 ovarian and with M14 melanoma was more than 25 µM each time.

As for `COc1ccc2c(c1)C(=O)/C(=C/c1ncc([N+](=O)[O-])n1C)O2`, the GI50 was 0.161 µM with MOLT-4 leukemia; 0.934 µM with NCI-H460 lung; 0.179 µM with LOX IMVI melanoma; 0.985 µM with IGROV1 ovarian; 0.161 µM in the assay on MDA-MB-435; 0.192 µM in the assay with NCI-H522 lung. Besides, the GI50 is 1.51 µM with 786-0 renal, 0.244 µM in the assay with HT29 colon, 0.261 µM with OVCAR-8 ovarian and 0.244 µM with M14 melanoma. For the same compound, the TGI in the assay on MOLT-4 leukemia turned out to be 0.562 µM; in the assay on NCI-H460 lung, 7.38 µM; with LOX IMVI melanoma, 0.481 µM; in the assay with IGROV1 ovarian, 6.91 µM; in the assay with MDA-MB-435 it was 0.323 µM; with NCI-H522 lung it was 0.449 µM. Further, the TGI in the assay with 786-0 renal was found to be 5.07 µM; in the assay on HT29 colon it was 0.78 µM; with OVCAR-8 ovarian it was 2.81 µM; with M14 melanoma, 0.737 µM.

Regarding `COc1ccc(-n2c3c(c4c(CN5CCOCC5)c(O)ccc42)CCc2ccccc2C3=O)cc1`, the GI50 with MOLT-4 leukemia was 45.9 µM; in the assay with NCI-H460 lung it was more than 100 µM; with LOX IMVI melanoma, 67.3 µM; in the assay on IGROV1 ovarian it was 37.6 µM; in the assay on MDA-MB-435, 12.1 µM; in the assay with NCI-H522 lung, 7.28 µM. Moreover, the GI50 is 75.8 µM in the assay with 786-0 renal, 64.4 µM with OVCAR-8 ovarian and more than 100 µM with M14 melanoma. The TGI in the assay on MOLT-4 leukemia was more than 100 µM; in the assay on NCI-H460 lung, more than 100 µM; in the assay with LOX IMVI melanoma, more than 100 µM; in the assay on IGROV1 ovarian, more than 100 µM; in the assay on MDA-MB-435, 47.8 µM; with NCI-H522 lung it was 63.2 µM. Moreover, the TGI was more than 100 µM in the assay with 786-0 renal, 0.0934 µM in the assay on HT29 colon, more than 100 µM in the assay on OVCAR-8 ovarian and more than 100 µM with M14 melanoma.

Turning to `COc1ccc(/C=C/C(=O)Oc2cc(O)cc(O)c2)cc1`, the TGI with MOLT-4 leukemia is 30.7 µM; in the assay on NCI-H460 lung, more than 100 µM; with LOX IMVI melanoma, 41.1 µM; with IGROV1 ovarian, 76.1 µM; in the assay on MDA-MB-435, more than 100 µM; in the assay with NCI-H522 lung it was more than 100 µM. For the same compound, the TGI in the assay with 786-0 renal, in the assay with HT29 colon, in the assay on OVCAR-8 ovarian and with M14 melanoma was more than 100 µM in each case.

Turning to `Cc1ccc2c(c1)NC(=O)CC(c1ccccc1)=N2`, the TGI is 85.8 µM in the assay with MOLT-4 leukemia; more than 100 µM in the assay with NCI-H460 lung; more than 100 µM with LOX IMVI melanoma; more than 100 µM in the assay on IGROV1 ovarian; more than 100 µM in the assay with MDA-MB-435; more than 100 µM in the assay with NCI-H522 lung. The TGI in the assay with 786-0 renal, in the assay with HT29 colon, in the assay on OVCAR-8 ovarian and with M14 melanoma was more than 100 µM each time.
